Data: PMC6177439, “Peptide-oligonucleotide conjugates exhibiting pyrimidine-X cleavage specificity efficiently silence miRNA target acting synergistically with RNase H” (Scientific Reports, 2018)

Columns and labels:
[1] = tested on: 96 nts fragment of HIV-1 RNA; design: method as in PMID 15047859, PMID 16615805; conditions: non-complementary RNA substrates; cited from earlier work
miR-17 [2] = assay: RNA cleavage assay, miR-17; format: biochemical; conditions: miR-17 1 µM, conjugate 20 µM, 37 °C, 24 h
Procedure: (§1) The reaction mixture (5 µl) contained 10^5 cpm (Cherenkov’s counting) of [^32P]-RNA, 1 μM unlabeled RNA, and one of the conjugates at a concentration ranging from 1 to 100 μM, 50 mM Tris-HCl, pH 7.0, 0.2 M KCl, and 1 mM EDTA. […] To identify cleavage sites, imidazole and T1-ladders produced by partial RNA cleavage with 2 M imidazole buffer (pH 7.0)[41] and with RNase T1[42], respectively, were run in parallel. To obtain quantitative data, gels were dried and analyzed using Molecular Imager FX (Bio-Rad, USA). The total extent of RNA cleavage and the extent of RNA cleavage at each individual site were determined with Quantity One software.

miR-21^hybrid = assay: RNA cleavage assay, miR-21^hybrid; format: biochemical; conditions: RNA 1 µM, conjugate 20 µM, 37 °C, 24 h time point
Procedure: as §1

miR-21 [3] = assay: Gel-retardation assay, hybridization with miR-21; format: binding; conditions: at equimolar concentration and higher; miR-21 1 µM, 0.5-10 µM oligonucleotide or conjugate, 37 °C, 1 h, 50 mM Tris-HCl pH 7.0, 0.2 M KCl, 1 mM EDTA, 15% native PAAG
Procedure: The samples were loaded onto the running gel immediately after quenching the reaction with an interval of 1 min. […] To obtain quantitative data, gels were dried and analyzed using Molecular Imager FX (Bio-Rad, USA). The extent of binding of oligonucleotide to miR-21 was determined using Quantity One software as a ratio of radioactivity measured in the complex to the total radioactivity applied onto the gel lane.

miR-21 [4] = assay: RNA cleavage assay, miR-21; format: biochemical; conditions: miR-21 1 µM, conjugate 100 µM, 37 °C, 0-144 h
Procedure: as §1

melanoma B16 cells = assay: xCELLigence real-time analysis of cell proliferation; format: cell-based, murine; conditions: 1 µM with Lipofectamine 2000, 120 h; for cell index: untreated control cell index 5
Procedure: Proliferation experiments were performed using an xCELLigence real-time cell analysis (RTCA) system (ACEABiosciences, USA) in an atmosphere of 5% CO2 at 37 °C. B16 melanoma cells were seeded at a concentration of 5 × 10^3 cells per well of 16-well E-Plates. The following day, the cells were transfected with conjugate 4, control conjugate 7 or oligonucleotide 4 at 1 µM concentration using Lipofectamine™ 2000 (Invitrogen, USA). In 4 h after transfection, the medium in the wells was replaced with DMEM medium containing 10% of FBS and 1% of antibiotics antimycotic solution. Cell proliferation experiments were run for 120 h and Cell Index was monitored every 30 min for the whole experiment duration. Four replications of each cell densities were used in the cell proliferation experiment.

let 7-g = assay: Off-target let-7g level in B16 cells by stem-loop qPCR; format: cell-based, murine; conditions: 1 µM, 24 h, Lipofectamine 2000, normalized to U6
miR-17 [5] = assay: miR-17 level in B16 cells by stem-loop qPCR; format: cell-based, murine; conditions: for decrease in the miR-17 level: 24 h after transfection with Lipofectamine 2000, 0.5 and 1 µM, normalized to U6, mean of three independent experiments
Procedure: Murine B16 melanoma cells (1.5–1 × 10^5 per well of 24-well plate) were pre-seeded in DMEM containing 10% FBS a day before transfection and were incubated at 37 °C in a humidified atmosphere with 5% CO2. Before the transfection, the medium was replaced by serum-free and antibiotic-free DMEM, and cells were incubated for 4 h with 0.05–1 µM of conjugate 4 precomplexed with Lipofectamine 2000 (Invitrogen, USA) in Opti-MEM medium according to manufacturer’s instructions. Then, the medium was replaced by culture medium containing 10% FBS and 1% antibiotic antimycotic solution ([…] streptomycin, 10000 IU/mL penicillin, and 25 µg/mL amphotericin), and the cells were cultivated for 24 h under the same conditions. After 24 h, total RNA was isolated from the cells using TRIzol Reagent (Invitrogen, USA) according to the manufacturer’s protocol.
Expression of miR-17, miR-21, miR-18a and let-7g in B16 cells was analyzed using stem-loop PCR technology[43],[44]. cDNA synthesis was carried out using SuperScript III reverse transcriptase (SSIII RT, Invitrogen, USA) as previously described. The RT and PCR primers used in the study are presented in Table S1 (Supplementary information). PCR amplification was carried out in a total volume of 20 µl, using Maxima Hot Start Taq DNA polymerase (Thermo Scientific, USA), 1 × PCR Buffer, 1.5 mM MgCl2, 0.2 mM dNTPs, 1 × EvaGreen (Biotium, Hayward, USA), and […] of PCR sense and antisense primers. The reaction was performed with initial preheating at 94 °C for 4 min and 40 cycles of 94 °C for 40 s, 61 °C for 30 s, and 72 °C for 30 s, followed by melting point determination. The obtained PCR data were analyzed using standard Bio-Rad iQ5 v.2.0 software. For each sample, the threshold cycle (Ct) was determined. Quantitative assessment of the level of transcripts representation and relative miRNA expression was performed by comparing the Ct values for miR-17 and a reference U6.

miR-17 [6] = assay: Cleavage of duplexes miR-17/ON and miR-17/conjugate by RNase H; format: biochemical; conditions: miR-17 10 µM, conjugate 5 µM, 37 °C
Procedure: The reaction mixture (10 µl) contained 10^5 cpm (Cherenkov’s counting) of [^32P]-miR-17, 10 µM unlabeled miR-17, oligonucleotide 4 or conjugate 4 at a concentration of 5 µM, 50 mM Tris-HCl, pH 7.0, 0.2 M KCl, and 1 mM EDTA was incubated at 37 °C for 20 min. Then, RNase H (Thermo Scientific, USA) was added to the reaction mixture to a final concentration 100 U/ml and incubated at 37 °C. At different time points, 30 min and 1, 2, 4, 8, and 24 h, an aliquot was taken and the reaction was quenched by precipitation of RNA with 2% LiClO4 in acetone. RNA cleavage products were analyzed by electrophoresis in denaturing gel as described above.

miR-18a = assay: Off-target miR-18a level in B16 cells by stem-loop qPCR; format: cell-based, murine; conditions: 1 µM, 24 h, Lipofectamine 2000, normalized to U6
miR-21 [7] = assay: Off-target miR-21 level in B16 cells by stem-loop qPCR; format: cell-based, murine; conditions: 1 µM, 24 h, Lipofectamine 2000, normalized to U6
E2F1 = assay: Western blot of miR-17 protein target E2F1 in B16 cells; format: cell-based, murine; conditions: 1 µM, 72 h after transfection, GAPDH internal control
Procedure: Cell lysates were separated in 12.5% SDS-PAGE and transferred to a PVDF membrane using a semi-dry transfer. The membranes were blocked for 1 h in 3% nonfat dried milk in TBST (20 mM Tris- HCl, pH 7.6,137mMNaCl, 0.1% Tween), and incubated with primary antibodies against E2F1 (ab179445, Abcam, UK, 1:500) and reference protein GAPDH (ab9485, Abcam, UK, 1:1000) at +4 °C for night. After three washes with TBST, membranes were incubated with secondary HRP-conjugated goat anti-rabbit antibodies (ab6721, Abcam, UK) at room temperature for 1 h. After three washes with TBST luminescence detection was performed by Versadoc 4000 MP (Bio-Rad, USA) using Chemiluminescent reagent kit (Abcam, USA). Data were analyzed using GelPro 4.0 software (Media Cybernetics, USA).

In the case of “NH2-Gly(ArgLeu)4-TCAA [short peptide-oligonucleotide conjugate, small chemical ribonuclease used as catalytic construction]”, the cleavage specificity [1] is given as “Pyr-A cleavage specificity”.

In the case of “NH2—Gly(ArgLeu)4—P— (DEG)2—CTGTAAGCACTTTGGTCAGCGAAAGCTGAC [conjugate 6]”, the “cleavage of miR-17 at a 20-fold excess of conjugate” value (miR-17 [2]) is reported as “complete loss of ribonuclease activity”.

In the case of “NH2—Gly(ArgLeu)4—P—TCAA—(DEG)2—AGT CTG ATA AGC TA [conjugate 1, peptide-oligonucleotide conjugate (miRNase) targeted to miR-21, linear 14 nt oligonucleotide, double DEG linker]”, the “total extent of miR-21^hybrid cleavage at a 20-fold excess of conjugates” value (miR-21^hybrid) is reported as 55%, the “hybridization (binding) efficiency with miR-21” value (miR-21 [3]) is reported as 25% and the “cleavage efficiency of miR-21 at a 100-fold excess of conjugate” value (miR-21 [4]) is reported as 50%.

With “NH2—Gly(ArgLeu)4—P—TCAA—(DEG)2—CTGTAAGCACTTTGGTCAGCGAAAGCTGAC [conjugate 4]” the cell index (melanoma B16 cells) was 1, the “fold decrease of growth rate / inhibition of cell proliferation” value (melanoma B16 cells; versus untreated cells) was 5 fold and the “expression level of let 7-g versus controls” value (let 7-g) was “no statistically significant differences”. The “advantage in inhibition efficiency in comparison with antisense oligonucleotide 4” value (miR-17 [5]) was 2 fold, the “decrease in the miR-17 level” value (miR-17 [5]) was 80% and the “lowest concentration with statistically significant reduction of miR-17 level” value (miR-17 [5]; 24 h after transfection, range 0.05-1 µM) was 0.1 µM. The “increase of conjugate activity (miR-17 cleavage at conjugate sites) in the presence of RNase H” value (miR-17 [6]; RNase H 100 U/ml) was 11 fold, the “miR-17 cleavage at RNase H sites during the first 2 h, with RNase H” value (miR-17 [6]; RNase H 100 U/ml, 2 h) was 45% and the “miR-17 cleavage at sites C17-A18 and U21-A22 after 4 h, with RNase H” value (miR-17 [6]; RNase H 100 U/ml, 4 h) was 47%. For the same substance, the “miR-17 destroyed after 8 h, with RNase H” value (miR-17 [6]; RNase H 100 U/ml, 8 h) was 95%, the “miR-17 cleavage by conjugate alone under two-fold excess of RNA” value (miR-17 [6]; no RNase H, 24 h) was 9% and the “expression level of miR-18a versus controls” value (miR-18a) was “no statistically significant differences”. The “expression level of miR-21 versus controls” value (miR-21 [7]) was “no statistically significant differences”, the “cleavage of miR-17 at a 20-fold excess of conjugate” value (miR-17 [2]) was 9% and the “increase of the level of E2F1 protein as compared with control” value (E2F1) was 2.2 fold.

With “NH2—Gly(ArgLeu)4—P—TCAA—(DEG)2—TCTGATAAGCTACGTAGCGAAAGCTACG [conjugate 2]” the “total extent of miR-21^hybrid cleavage at a 20-fold excess of conjugates” value (miR-21^hybrid) was 85%, the “hybridization (binding) efficiency with miR-21” value (miR-21 [3]) was 48% and the “cleavage efficiency of miR-21 at a 100-fold excess of conjugate” value (miR-21 [4]) was 50%.

With “NH2—Gly(ArgLeu)4—P—TCAA—(DEG)—CTGTAAGCACTTTGGTCAGCGAAAGCTGAC [conjugate 5, miRNase targeted to miR-17, as conjugate 4 with single DEG linker]” the “cleavage of miR-17 at a 20-fold excess of conjugate” value (miR-17 [2]) was 3%.

In the case of “NH2—Gly(ArgLeu)4—P—TCAA—(TrEG)2—CGATAAATAACGCGCAAGTCAGCGAAAGCTGACTTG [conjugate 7, control conjugate addressed to luciferase mRNA]”, the cell index (melanoma B16 cells) is reported as 3.2, the “decrease in the miR-17 level” value (miR-17 [5]) is reported as “does not evoke any statistically significant reduction” and the “increase of the level of E2F1 protein as compared with control” value (E2F1) is reported as “no statistically significant change”.
